Tests used:
HIV protease = HIV protease (Human immunodeficiency virus type 1 group M subtype B, UniProt P04585); assay: biochemical
Excerpt: The procedure is based on the capacity of the test compound to inhibit enzymatic cleavage by HIV protease of a decapeptide (the substrate) having an amino acid sequence which includes a known HIV protease cleavage site of a HIV polyprotein; see H.G. Krausslich et al., Proc. Natl. Acad. Sci. USA, 86,807(1989).
Recombinant HIV Protease HPLC Assay: Enzyme: HIV protease was expressed in E. coli [construct pBRT1 prt⁺, see W.G. Farmerie et al., Science, 236, 305 (1987)], according to the following protocol: Unless stated otherwise, all solutions are aqueous solutions.
E. coli cells containing the pBRT1 prt⁺ plasmid were used to inoculate a seed culture media composed of Luria-Bertani Broth containing 100µg/mL of ampicillin. Flasks were incubated at 37° under agitation for 17 h. Production flasks containing sterile M9 broth, supplemented with 100µg/ml of ampicillin, were inoculated at a level of 1% (v/v) using the seed culture described above. Total volume in each production flask was 500 mL in a 2 L Erlenmeyer flask. Flasks were incubated at 37° under agitation until a cell concentration corresponding to an optical density (λ= 540 m) of 0.6 was reached (no dilution). This time span was routinely 3-4 h. Flasks were then supplemented with 5mM isopropylthiogalactoside (IPTG, Research Organics, Cleveland, Ohio, USA) and incubation was continued until the cell concentration reached an optical density of 0.2 at 16-fold dilution. Flasks were then supplemented with 1mM phenylmethylsulfonyl fluoride (PMSF) and rapidly chilled to 4°. The bacterial cells were recovered by centrifugation at 4°. The wet pellet was stored at -70°.
All steps below were performed at 4° unless otherwise indicated. Thawed cells were mixed with buffer A [50 mM […] HCl(Tris-HCl, pH 7.4); 0.6 mM ethylenediaminetetraacetic acid (EDTA); 0.375 M NaCl, 0.2% Nonidet P-40 ^R (BDH Chemicals Ltd., Poole, UK); 1mM PMSF], at a ratio of one part cells to nine parts buffer A. Diatomaceous earth (Celite 545 ^R , John Manville, Lompoc, CA, USA) was added at a ratio of two parts to one part of wet cell weight. The resulting slurry was homogenized at high speed (ca. 20,000 rpm) on a Waring ^R industrial blender for 8 x 15 sec. pulses. Cell debris/Celite ^R was collected by centrifugation and the resulting pellet was extracted with 4.5 parts of buffer A to one part wet solids using the homogenization procedure described above. Supernatants from both homogenization steps were combined and soluble protein was precipitated by the addition of solid (NH₄)₂SO₄ to yield a final concentration of 75% saturation. This mixture was agitated for 60 min and the precipitate was recovered by centrifugation. The resulting pellet was suspended in buffer B [50mM Tris-HCl, pH 8; 30 mM NaCl; 1 mM DL-dithio-threitol (DTT); 1 mM EDTA; 1 mM PMSF; 10% glycerol], and dialyzed for 18h against the same buffer.
An aliquot of the dialyzed extract containing 150 mg of the protein was loaded onto a Sephadex A25 ^R anion exchange column. (Pharmacia, Uppsala, Sweden) with bed dimensions of 70 cm length and 2.5 cm diameter. The sample was eluted isocratically with buffer B at a linear flow rate of 10 cm/h. Fractions containing HIV protease activity (see below for assay description) were combined, and soluble protein was precipitated by the addition of saturated aqueous (NH₄)₂SO₄ to yield a total (NH₄)₂SO₄ concentration of 85% saturation. Precipitated protein was removed by centrifugation and the resulting pellet was dissolved in buffer C [50 mM 2-(4-morpholino)ethanesulfonic acid (MES), pH 5.5; 150 mM NaCl; 1 mM DTT; 1 mM EDTA; 10% glycerol]. This preparation was dialyzed for 18h against buffer C, and then frozen at -70°. All crude extracts were purified by chromatography in aliquots containing 150 mg of protein in the same manner as described above. The final preparations from each batch were pooled, divided into 34µL aliquots and stored at -70°.

HIV = settings: at 20µg/mL; C8166 cells, H9/HTLV-IIIB, 72 h
Protocol: The following protocol, used for screening antiviral effects of the compounds of formula 1, is adapted from a plaque assay utilizing HTLV-I transformed cells which was developed by Harada et al., supra. HTLV-I transformed cells are used in these assays because of the rapidity with which HIV will replicate in these cells. • 1. The test compound is dissolved in dimethylsulfoxide to a concentration of 5 mg/mL. The resultant solution can be stored at 4° until used. • 2. The resultant solution is diluted in RPMI 1640 (Gibco Laboratories, St. Lawrence, MA, USA) to four times (4x) the final concentration which is to be tested. Once diluted in RPMI 1640, the solution is used in the cell culture assay within 4 h. • 3. The 4x solution (50µL) is added to triplicate wells of a 96 well flat bottomed microtiter plate. RPMI 50µL also is added to control wells. • 4. C8166 cells (5 x 10⁻⁴) in 50 µL of HEPES-buffered RPMI 1640, 10% heat inactivated fetal calf serum (FCS), 12.5µL/ml gentamicin (complete media) are added to all wells. • 5. […] Infectious titer of virus stocks are as previously determined by end point dilution on C8166 cells. […] Plates are then removed and centers of syncytia are counted in each well by low power phase contrast light microscopy. […] Percent inhibition of syncytia formation is calculated by the formula: [formula]

**Q.** How did the IC50 (HIV protease) turn out when `CC[C@H](C)[C@H](NC(=O)[C@H](CCC(=O)O)NC(=O)[C@H](CC(C)C)NC[C@H](Cc1ccccc1)NC(=O)[C@@H](NC(C)=O)C(C)C)C(N)=O` [Example 12, Ac-Val-Pheψ[CH₂NH]Leu-Glu-Ile-NH₂] was run?
**A.** 6.7 nM

**Q.** How did the IC50 (HIV protease) turn out when `CC(=O)N[C@H](C(=O)N[C@@H](CC1CCCCC1)[C@@H](O)CC(=O)N[C@@H](CC(C)C)C(=O)N[C@@H](Cc1ccccc1)C(N)=O)C(C)(C)C` [Example 11, Ac-Tbg-ACHPA-Leu-Phe-NH₂] was run?
**A.** 200 nM

**Q.** What about the “inhibition of syncytia formation” value (HIV) of the same compound?
**A.** 72%

**Q.** How did the IC50 (HIV protease) turn out when `CC(=O)N[C@H](C(=O)N[C@@H](CC1CCCCC1)[C@@H](O)CC(=O)N[C@@H](CC(C)C)C(=O)N[C@@H](Cc1ccccc1)C(N)=O)C(C)C` [Example 5, Ac-Val-ACHPA-Leu-Phe-NH₂] was run?
**A.** 280 nM

**Q.** And the “inhibition of syncytia formation” value (HIV)?
**A.** 97%

**Q.** Which IC50 (HIV protease) does the source give for `CC[C@H](C)[C@H](NC(=O)[C@H](CCC(N)=O)NC(=O)[C@H](CC(C)C)NC[C@H](Cc1ccccc1)NC(=O)[C@@H](NC(=O)[C@H](C)O)C(C)C)C(N)=O` [Example 19, [(S)-CH₃CH(OH)C(O)]-Val-Pheψ[CH₂NH]Leu-Gln-Ile-NH₂] here?
**A.** 660 nM

**Q.** For `CC(C)C[C@H](NC(=O)C[C@H](O)[C@H](CC1CCCCC1)NC(=O)[C@@H](NC(=O)[C@@H](O)CO)C(C)C)C(=O)N[C@@H](Cc1ccccc1)C(N)=O` [Example 4, [(S)-HOCH₂CH(OH)C(O)]-Val-ACHPA-Leu-Phe-NH₂], which IC50 (HIV protease) is on record?
**A.** 180 nM

**Q.** For `CC(C)C[C@H](NC(=O)C[C@H](O)[C@H](CC1CCCCC1)NC(=O)[C@@H](NC(=O)CCc1ccc(OCC(=O)OCc2ccccc2)cc1)C(C)C)C(=O)N[C@@H](Cc1ccccc1)C(N)=O` [Example 2, [4-(BzlOC(O)CH₂O)Ph]CH₂CH₂C(O)-Val-ACHPA-Leu-Phe-NH₂], which IC50 (HIV protease) is on record?
**A.** 170 nM

**Q.** How did the IC50 (HIV protease) turn out when `CC(=O)N[C@H](C(=O)N[C@H](CN[C@@H](CC(C)C)C(=O)N[C@H](C(=O)N[C@@H](COCc1ccccc1)C(N)=O)C(C)C)Cc1ccccc1)C(C)C` [Example 22, Ac-Val-Pheψ[CH₂NH]Leu-Val-Ser(OBzl)-NH₂] was run?
**A.** 29 nM

**Q.** For `CC[C@H](C)[C@H](NC(=O)[C@H](CCC(N)=O)NC(=O)[C@H](CC(C)C)NC[C@H](Cc1ccccc1)NC(=O)[C@@H](NC(C)=O)[C@@H](C)CC)C(N)=O` [Example 16, Ac-Ile-Pheψ[CH₂NH]Leu-Gln-Ile-NH₂], which IC50 (HIV protease) is on record?
**A.** 180 nM

**Q.** Which IC50 (HIV protease) does the source give for `CC[C@H](C)[C@H](NC(=O)[C@H](CCC(N)=O)NC(=O)[C@H](CC(C)(C)C)NC[C@H](Cc1ccccc1)NC(=O)[C@@H](NC(C)=O)C(C)C)C(N)=O` [Example 21, Ac-Val-Pheψ[CH₂NH]Tba-Gln-Ile-NH₂] here?
**A.** 720 nM

From EP0443559A2, “HIV protease inhibiting agents” (BIO-MEGA/BOEHRINGER INGELHEIM RESEARCH INC., priority 1990, dated 1991)
